Experimental data published in US7834248B2, “Plant seed comprising vernolic acid” (Commonwealth Scientific and Industrial Research Organisation, priority 1997, dated 2010).
Values belong to the compound of their own block, whether it stands above or below them.

Legend:
[1] = system: E. lagascae linoleate Δ12-epoxygenase; assay: Membrane linoleate Δ12-epoxygenase assay, effect of treatments; format: biochemical, Euphorbia lagascae; conditions: for Enzyme Activity (% of control), E. lagascae linoleate Δ12-epoxygenase: membranes, control = minus NADH plus NADPH
Protocol: Preparations of membranes from Euphorbia lagascae and assays of their epoxygenase activities were performed as described by Bafor et al. (1993) with incubations containing NADPH, unless otherwise indicated in Table 4. Lipid extraction, separation and methylation as well as GLC and radio-GLC separations were performed essentially as described by Kohn et al. (1994) and Bafor et al. (1993).
(§1) Biochemical characterization of the microsomal linoleate Δ12-epoxygenase derived from Euphorbia lagascae and Crepis palaestina was carried out and data obtained were compared to the biochemical characteristics of oleate Δ12-desaturase and linoleate Δ12-acetylenase enzymes derived from microsomal preparations of Crepis alpina (Table 4).

[2] = target: T1, C. alpina linoleate Δ12-acetylenase (Crepis alpina, UniProt O81931); assay: Microsomal linoleate Δ12-acetylenase assay, effect of treatments; format: biochemical
T1 construct: from tissue; host or cells: microsomes from cotyledons of developing Crepis alpina seeds
Protocol: (§2) Preparations of membranes from Crepis alpina and Crepis palaestina were obtained as follows. Crepis alpina and Crepis palaestina plants were grown in green houses and seeds were harvested at the mid-stage of development (17-20 days after flowering). Cotyledons were squeezed out from their seed coats and homogenized with mortar and pestle in 0.1M phosphate buffer, pH 7.2 containing 0.33M sucrose, 4 mM NADH, 2 mM CoASH, 1 mg of bovine serum albumin/ml and 4,000 units of catalase/ml. The homogenate was centrifuged for 10 min at 18,000×g and the resulting supernatant centrifuged for 60 min at 150,000×g to obtain a microsome pellet.
(§3) […]. When NADPH was used as coreductant, the membranes were resuspended in homogenization buffer comprising NADPH in place of NADH.
as §1

[3] = system: C. alpina oleate Δ12-desaturase; assay: Microsomal oleate Δ12-desaturase assay, effect of treatments; format: biochemical, Crepis alpina; conditions: for Enzyme Activity (% of control), C. alpina oleate Δ12-desaturase: microsomal membranes, control = minus NADPH plus NADH
Protocol: as §2, §3, §1

[4] = system: C. palaestina linoleate Δ12-epoxygenase; assay: Microsomal linoleate Δ12-epoxygenase assay, effect of treatments; format: biochemical, Crepis palaestina; conditions: microsomal membranes; control = minus NADPH plus NADH
Protocol: as §2, §3, §1

[5] = system: developing linseed cotyledons; assay: Incorporation of 14C-labelled oleic acid and vernolic acid into the lipids of developing linseed cotyledons
Protocol: 0.1 M phosphate buffer pH 7.2 for 90 or 270 min before extraction. An aliquot of the lipids in the chloroform phase was methylated and separated on silica gel TLC plates in n-hexane/diethylether/acetic acid (85:15:1). The rest of the lipids in the chloroform phase of each sample were applied on two separate silica gel TLC plates and the plates were developed in chloroform/methanol/acetic acid/water (85:15:10:3.5 by vol) for polar lipids separation and in n-hexane/diethylether/acetic acid (60:40:1.5) for neutral lipid separation. Lipid areas with migration corresponding to authentic standards were removed and radioactivity in each lipid were quantified by liquid scintillation counting.

T1 sequence (O81931 whole entry, stated change not applied): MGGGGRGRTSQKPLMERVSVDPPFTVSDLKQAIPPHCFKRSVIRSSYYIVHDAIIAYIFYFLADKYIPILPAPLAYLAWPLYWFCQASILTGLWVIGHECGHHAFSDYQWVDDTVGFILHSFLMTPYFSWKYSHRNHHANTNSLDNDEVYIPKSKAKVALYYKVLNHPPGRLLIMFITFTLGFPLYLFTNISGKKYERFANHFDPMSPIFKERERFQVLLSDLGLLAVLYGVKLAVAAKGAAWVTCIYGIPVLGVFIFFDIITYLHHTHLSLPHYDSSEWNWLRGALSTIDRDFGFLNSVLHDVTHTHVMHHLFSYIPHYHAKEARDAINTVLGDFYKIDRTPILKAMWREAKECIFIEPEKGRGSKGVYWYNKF

SMILES: [C-]#[O+] [Carbon monoxide]
Inhibition of linoleate Δ12-epoxygenase (in words) ([1]; Euphorbia lagascae membranes): is inhibited
Enzyme Activity (% of control), E. lagascae linoleate Δ12-epoxygenase [1]: 3 % of control
Inhibition of linoleate Δ12-acetylenase (in words) ([2]; Crepis alpina microsomes): not by carbon monoxide
Inhibition of oleate Δ12-desaturase (in words) ([3]; Crepis alpina microsomes): not by carbon monoxide
Enzyme Activity (% of control), C. alpina oleate Δ12-desaturase [3]: 85 % of control
Enzyme Activity (% of control), C. palaestina linoleate Δ12-epoxygenase [4]: 88 % of control

Enzyme Activity (% of control), E. lagascae linoleate Δ12-epoxygenase [1]: 11 % of control
SMILES: NC(=O)C1=CN([C@@H]2O[C@H](COP(=O)(O)OP(=O)(O)OC[C@H]3O[C@@H](n4cnc5c(N)ncnc54)[C@H](O)[C@@H]3O)[C@@H](O)[C@H]2O)C=CC1 [NADH]

SMILES: NC(=O)C1=CN([C@@H]2O[C@H](COP(=O)(O)OP(=O)(O)OC[C@H]3O[C@@H](n4cnc5c(N)ncnc54)[C@H](OP(=O)(O)O)[C@@H]3O)[C@@H](O)[C@H]2O)C=CC1 [NADPH]
Enzyme Activity (% of control), C. alpina linoleate Δ12-acetylenase ([2]; microsomal membranes, control = minus NADPH plus NADH): 73 % of control
Enzyme Activity (% of control), C. alpina oleate Δ12-desaturase [3]: 95 % of control
Enzyme Activity (% of control), C. palaestina linoleate Δ12-epoxygenase [4]: 94 % of control

Activity of chloroform phase residing in phosphatidylcholine ([5]; after 30 min): About 22%
Activity of chloroform phase residing in triacylglycerols ([5]; after 30 min): About 5%
Added radioactivity taken up by the cotyledons and recovered as lipophilic substances (chloroform phase) ([5]; after the 30 min pulse labeling, virtually unchanged during further 270 min): Somewhat more than half
Activity of chloroform phase residing in phosphatidylcholine ([5]; at 300 min of incubation): about 11%
Activity of chloroform phase residing in triacylglycerols ([5]; at 300 min of incubation): 18%
Activity contained in diacylglycerols ([5]; remained rather constant over the incubation periods): ~19%
SMILES: CCCCCCCC/C=C\CCCCCCCC(=O)O [[^14C]oleic acid, oleic acid]

SMILES: CCCCCC1OC1CC=CCCCCCCCC(=O)O (centres unmarked) [[^14C]vernolic acid, 12,13-epoxy-9-octadecenoic acid]
Metabolism of the epoxy group by linseed cotyledons (in words) [5]: do not metabolize the epoxy group of vernolic acid to any great extent
